Measured values reported in patent US6908899B2, “Pro-inflammatory fibrinopeptide” (U.S. Dept. of Veterans Affairs, priority 2001, dated 2005).

Legend:
endothelial cells = assay: Fibrin co-culture with endothelial cells; format: cell-based
Text: Synthetic peptides modeled after these “knobs” are able to inhibit fibrin polymerization by covering up the “holes” on the gamma chains and are commercially available.

foreskin fibroblasts = assay: ICAM-1 cell-ELISA (O.D. 492); format: cell-based, human

Gly-Pro-Arg-Pro [GPRP]
Direct effects on endothelial cells (endothelial cells): no direct effects
ICAM-1 OD 492 (foreskin fibroblasts; FF-#1, GPRP 0.10 mg/ml overnight): 0.92 ± .02
ICAM-1 OD 492 (foreskin fibroblasts; FF-#1, GPRP 0.30 mg/ml overnight): 0.99 ± .01
ICAM-1 OD 492 (foreskin fibroblasts; FF-#1, GPRP 1.00 mg/ml overnight): 1.02 ± .01
ICAM-1 OD 492 (foreskin fibroblasts; FF-#1, GPRP .001 mg/ml overnight): 0.92 ± .01
ICAM-1 OD 492 (foreskin fibroblasts; FF-#1, GPRP .003 mg/ml overnight): 0.95 ± .06
ICAM-1 OD 492 (foreskin fibroblasts; FF-#1, GPRP .010 mg/ml overnight): 0.93 ± .03
ICAM-1 OD 492 (foreskin fibroblasts; FF-#1, GPRP .030 mg/ml overnight): 0.94 ± .05
ICAM-1 OD 492 (foreskin fibroblasts; FF-#2, GPRP 0.10 mg/ml overnight): .72 ± .02
ICAM-1 OD 492 (foreskin fibroblasts; FF-#2, GPRP 0.30 mg/ml overnight): .72 ± .03
ICAM-1 OD 492 (foreskin fibroblasts; FF-#2, GPRP 1.00 mg/ml overnight): .78 ± .04
ICAM-1 OD 492 (foreskin fibroblasts; FF-#2, GPRP .001 mg/ml overnight): .69 ± .02
ICAM-1 OD 492 (foreskin fibroblasts; FF-#2, GPRP .003 mg/ml overnight): .71 ± .04
ICAM-1 OD 492 (foreskin fibroblasts; FF-#2, GPRP .010 mg/ml overnight): .71 ± .02
ICAM-1 OD 492 (foreskin fibroblasts; FF-#2, GPRP .030 mg/ml overnight): .70 ± .02
ICAM-1 expression O.D. 492 (foreskin fibroblasts; Foreskin fibroblasts, overnight, fibrin clots 0.6 mg/ml, GPRP 1 mg/ml or interferon γ 200 U/ml, mean ± SD): 0.55 ± .05
ICAM-1 O.D. 492 (foreskin fibroblasts; Foreskin line, overnight, IL-1 0.5 ng/ml, GPRP or GPRP-amide 1 mg/ml, fibrinogen receptor peptide 0.1 mg/ml, FPA, FPB 10^−4 M): 0.79 ± .02
